In publication PMC11202288, “The Structural Basis of the Activity Cliff in Modafinil-Based Dopamine Transporter Inhibitors” (Biomolecules, 2024):
Read-outs that look alike come from different tables or passages of the source.

Target: T1, hDAT (human dopamine transporter) (Homo sapiens, UniProt Q01959)
T1 construct: gene SLC6A3; full-length human DAT stably expressed in HEK293 cells; membrane preparation
Assay: [3H]WIN35, […] competition binding, HEK293-hDAT membranes

[1] = read-out: hDAT Ki ± SEM (nM) ^a (n)

T1 sequence (Q01959 whole entry): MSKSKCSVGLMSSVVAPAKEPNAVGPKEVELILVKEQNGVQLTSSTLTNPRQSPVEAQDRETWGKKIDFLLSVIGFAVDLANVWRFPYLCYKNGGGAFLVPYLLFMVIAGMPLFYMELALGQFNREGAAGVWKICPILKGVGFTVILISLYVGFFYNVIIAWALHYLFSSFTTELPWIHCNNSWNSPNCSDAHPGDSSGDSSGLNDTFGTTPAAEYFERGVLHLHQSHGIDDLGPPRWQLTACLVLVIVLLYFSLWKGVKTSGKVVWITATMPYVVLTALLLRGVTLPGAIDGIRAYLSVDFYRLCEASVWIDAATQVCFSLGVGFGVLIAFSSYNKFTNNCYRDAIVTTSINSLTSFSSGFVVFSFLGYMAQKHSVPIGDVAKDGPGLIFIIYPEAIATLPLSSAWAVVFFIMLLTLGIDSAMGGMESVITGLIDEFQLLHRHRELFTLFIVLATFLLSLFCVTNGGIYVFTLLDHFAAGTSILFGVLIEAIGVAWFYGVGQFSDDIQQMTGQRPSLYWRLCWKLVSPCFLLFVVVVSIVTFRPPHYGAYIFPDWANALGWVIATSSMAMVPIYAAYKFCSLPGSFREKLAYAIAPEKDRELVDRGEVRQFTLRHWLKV

SMILES	Ki [1]	Ki
CC(O)CN1CCN(CCSC(c2ccc(F)cc2)c2ccc(F)cc2)CC1 (stereo not drawn) [JJC8-089]	69.1 ± 10.5 nM	
CC(O)CN1[C@H](C)CN(CCSC(c2ccc(F)cc2)c2ccc(F)cc2)C[C@@H]1C (stereo partly drawn) [RDS3-094]		50.1 ± 6.51 nM
CC(O)CN1[C@H](C)CN(CC[S+]([O-])C(c2ccc(F)cc2)c2ccc(F)cc2)C[C@@H]1C (stereo partly drawn) [RDS4-010]	1570 ± 186 nM	
